The subject of data set [1] is cornea of the right eye of a Wistar rat. Conditions: cited from earlier work; for Observation in Treated Eye: Angiogenesis / Observation in Treated Eye: Corneal Keratoconus / Observation in Treated Eye: No Change: 10 μL topically once, 5 rats treated, one week.
Data set [2] relates to leukoplakia and hyperemia of the eye. As to the kind of experiment: Topical treatment of leukoplakia and hyperemia of the eye in a patient. Conditions: topical cortisone drops, two months, right eye. The data set is classed as in vivo, human. The text has this: The leukoplakia was hypothesized to be the result of excessive sun exposure and chemicals. The patient was initially treated with topical cortisone drops, and the cortisone treatment continued for two months.
One month subsequent to stopping cortisone treatment, the patient underwent treatment with a 3% aqueous solution of melanin (w/v) that was topically applied in the form of eye drops. The aqueous solution was produced by mixing water and chemically synthesized melanin (synthetic melanin). […] Three to four drops (about 50 μL per drop) of the 3% aqueous melanin solution were administered for each application, and the solution was applied four times per day at approximately six hour intervals. […] The same dosing regimen was used over the entire course of the treatment.

The next data set relates to eyes of healthy rats. Conditions: rat, in vivo.
A further data set relates to hyphema in rabbits. Conditions: rabbit, in vivo; cited from earlier work.

The values below come from US10220021B2, “Methods for treating and preventing ocular diseases, disorders, and conditions with melanin and melanin analogs, precursors, and derivatives” (priority 2014, dated 2019).

Like-named read-outs stand apart in the source and are kept apart here.

Procedure for eyes of healthy rats: The effect of subconjunctival injection of melanin into the eyes of healthy rats was tested. Rats were put under general anesthesia by intraperitoneal injection of barbiturates. A total of five rats were used in the study. Then, 500 μL of a 3% aqueous melanin solution was administered to the right eye of each of the rats by subconjunctival injection. The left eye was left untreated.

On to `Oc1ccccc1` [Phenol, phenol], for which the “formation of new blood vessels in the cornea” value in data set [1] (all concentrations of phenol tested (0.1 M to 8.5 M), at least one rat in each group, one week after application) is “new blood vessels began to form in the cornea”. The “changes associated with corneal ectasia, particularly corneal keratoconus” value in data set [1] (higher concentrations of phenol (e.g., 3.0 M, 5.6 M, and 8.5 M)) is on record as “observed in some of the rats”. Further, the “Observation in Treated Eye: Angiogenesis” value is listed as 1 Number of Rats in data set [1] (phenol 0.1M); 1 Number of Rats in data set [1] (phenol 0.5M); 3 Number of Rats in data set [1] (phenol 1.0M); 4 Number of Rats in data set [1] (phenol 3.0M); 4 Number of Rats in data set [1] (phenol 6.5M); 3 Number of Rats in data set [1] (phenol 8.5M). Further, the “Observation in Treated Eye: Corneal Keratoconus” value in data set [1] (phenol 0.1M) is 0 Number of Rats; in data set [1] (phenol 0.5M) it was 0 Number of Rats; in data set [1] (phenol 1.0M) it was 0 Number of Rats; in data set [1] (phenol 3.0M) it was 2 Number of Rats; in data set [1] (phenol 6.5M) it was 2 Number of Rats; in data set [1] (phenol 8.5M), 1 Number of Rats. Also, the “Observation in Treated Eye: No Change” value is reported as 4 Number of Rats in data set [1] (phenol 0.1M); 4 Number of Rats in data set [1] (phenol 0.5M); 2 Number of Rats in data set [1] (phenol 1.0M); 1 Number of Rats in data set [1] (phenol 3.0M); 1 Number of Rats in data set [1] (phenol 6.5M); 2 Number of Rats in data set [1] (phenol 8.5M).

As to `C[C@]12CCC(=O)C=C1CC[C@@H]1[C@@H]2C(=O)C[C@@]2(C)[C@H]1CC[C@]2(O)C(=O)CO` [cortisone], the “improvement of leukoplakia and hyperemia” value in data set [2] is listed as “no improvement”.

Turning to melanin, in the data set with eyes of healthy rats, the “appearance of treated eyes immediately after injection” value was “increase in size and some distortion”; the “visible marks on the ocular tissue at the injection site” value was “no visible marks”; the “visible signs of inflammation, irritation, or subconjunctival bleeding” value is on record as “nor were any visible signs of inflammation, irritation, or subconjunctival bleeding observed”. The incidence of rebleeds entry in the data set on hyphema in rabbits is given as “increase”.
